Experiments:
Type in all cases: biochemical
KLK5 = molecular target: T1, KLK5 (Homo sapiens, UniProt Q9Y337); assay: Fluorescent kinetic enzyme inhibitor assay of KLK5 (Boc-VPR-AMC); conditions: Table 4; 7.5 nM KLK5, 100 μM substrate
T1 construct: purchased R&D Systems 1108-SE-010
T1 sequence (Q9Y337 23-293): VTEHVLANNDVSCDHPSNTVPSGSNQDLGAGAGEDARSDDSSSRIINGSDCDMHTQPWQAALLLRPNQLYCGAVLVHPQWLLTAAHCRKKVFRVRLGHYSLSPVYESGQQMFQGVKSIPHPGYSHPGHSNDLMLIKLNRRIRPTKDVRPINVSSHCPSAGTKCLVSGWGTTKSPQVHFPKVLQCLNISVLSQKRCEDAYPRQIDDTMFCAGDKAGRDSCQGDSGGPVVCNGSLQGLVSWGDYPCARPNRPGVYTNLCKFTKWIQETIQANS
Method: Fluorescent Kinetic Enzyme Inhibitor Assay of KLK5: Inhibitors (11-pt serial dilutions, 0-20 μM final concentration in reaction) were serially diluted in DMSO (2% DMSO final concentration) and then mixed with KLK5 (#1108-SE-010, R&D Systems, Minneapolis, Minnesota) in black 384 well plates (Corning #3575. Corning, NY). The final assay concentration for KLK5 is 7.5 nM in TNC buffer (25 mM Tris, 150 mM NaCl, 5 mM CaCl2), 0.01% Triton X-100, pH 8). After thirty minutes incubation at room temperature, Boc-VPR-AMC substrate was added. The final substrate concentrations for assay is 100 μM. Changes in fluorescence (excitation at 380 nm and emission at 460 nm) were measured at room temperature over time in a Biotek Synergy 2 plate reader (Winnoski, VT). Using GraphPad Prism version 6.04 software program, (GraphPad Software, San Diego, CA, graphpad.com), a four parameter curve fit was used to determine the inhibitor IC50s from a plot of the mean reaction velocity versus the inhibitor concentration. The IC50 values represent the average of three or more separate experimental determinations.

matriptase = molecular target: T2, matriptase (Homo sapiens, UniProt Q9Y5Y6); assay: Fluorescent kinetic enzyme assay of matriptase activity (Boc-QAR-AMC); conditions: Table 2; read-out: Matriptase (IC50 nM)
T2 construct: purchased R&D Systems 3946-SE-010
T2 sequence (Q9Y5Y6 615-855 limits assumed): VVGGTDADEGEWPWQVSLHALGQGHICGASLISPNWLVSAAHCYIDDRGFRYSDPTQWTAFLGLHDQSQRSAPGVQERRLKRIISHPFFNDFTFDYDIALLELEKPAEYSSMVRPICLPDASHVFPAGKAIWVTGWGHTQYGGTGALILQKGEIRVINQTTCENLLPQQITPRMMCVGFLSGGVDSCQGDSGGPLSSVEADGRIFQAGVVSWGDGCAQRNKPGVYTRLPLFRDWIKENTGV

Factor Xa = Factor Xa (Homo sapiens, UniProt P00742); assay: Chromogenic kinetic enzyme assay of Factor Xa (S2222); conditions: Table 2; chromogenic assay; read-out: Factor Xa* (IC50 nM)
activated hepsin = molecular target: T3, activated hepsin (Homo sapiens, UniProt P05981); assay: Fluorescent kinetic enzyme assay of hepsin activity (Boc-QAR-AMC); conditions: Table 2; read-out: Hepsin (IC50 nM)
T3 construct: purchased R&D Systems 4776-SE-010

[1] = molecular target: T4, recombinant HGFA serine protease domain (Homo sapiens, UniProt Q04756); assay: Fluorescent kinetic enzyme assay of HGFA activity (Boc-QLR-AMC); conditions: Table 2; read-out: HGFA (IC50 nM)
T4 construct: His6 tag (N); seven amino acid spacer plus TEV cleavage site (N); made in house; host or cells: High 5 insect cells (baculovirus; Sf9 for virus production)
T4 sequence (Q04756 373-655): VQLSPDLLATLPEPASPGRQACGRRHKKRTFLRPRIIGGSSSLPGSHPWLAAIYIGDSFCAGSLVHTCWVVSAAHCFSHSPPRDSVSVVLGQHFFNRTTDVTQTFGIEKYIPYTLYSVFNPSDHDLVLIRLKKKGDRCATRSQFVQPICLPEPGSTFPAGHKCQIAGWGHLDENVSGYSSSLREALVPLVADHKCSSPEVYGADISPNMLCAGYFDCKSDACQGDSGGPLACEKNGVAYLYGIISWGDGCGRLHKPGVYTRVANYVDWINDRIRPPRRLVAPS
Outline: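 His-tagged HGFA protease domain from baculovirus-infected High 5 cells, 6.25 nM in pH 8 Tris/NaCl/5 mM CaCl2/0.01% Triton X-100 with 2% DMSO. IC50 from four-parameter velocity fit (≥3 runs); apparent Ki by Cheng–Prusoff.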

T3 sequence (P05981 163-417 limits assumed): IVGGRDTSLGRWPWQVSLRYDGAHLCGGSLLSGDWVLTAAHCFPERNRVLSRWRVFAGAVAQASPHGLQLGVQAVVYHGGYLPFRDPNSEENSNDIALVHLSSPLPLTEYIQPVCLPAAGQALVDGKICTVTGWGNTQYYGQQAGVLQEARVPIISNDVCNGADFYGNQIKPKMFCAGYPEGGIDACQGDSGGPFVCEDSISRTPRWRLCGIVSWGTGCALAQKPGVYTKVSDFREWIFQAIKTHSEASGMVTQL
T3 sequence (P05981 1-162 partner limits assumed): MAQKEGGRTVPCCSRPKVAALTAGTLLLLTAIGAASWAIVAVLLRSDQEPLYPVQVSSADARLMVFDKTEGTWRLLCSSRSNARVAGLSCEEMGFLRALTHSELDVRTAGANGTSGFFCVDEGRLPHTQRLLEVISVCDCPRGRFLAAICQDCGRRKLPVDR
Factor Xa, sequence (P00742 235-488 limits assumed): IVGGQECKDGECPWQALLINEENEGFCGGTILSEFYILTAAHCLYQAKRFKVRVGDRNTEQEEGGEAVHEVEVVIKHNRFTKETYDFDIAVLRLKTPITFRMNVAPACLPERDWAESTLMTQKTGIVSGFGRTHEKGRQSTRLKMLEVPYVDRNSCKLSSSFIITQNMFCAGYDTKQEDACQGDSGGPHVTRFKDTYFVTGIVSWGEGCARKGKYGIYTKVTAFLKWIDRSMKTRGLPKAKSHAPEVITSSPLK
Factor Xa, sequence (P00742 41-179 partner limits assumed): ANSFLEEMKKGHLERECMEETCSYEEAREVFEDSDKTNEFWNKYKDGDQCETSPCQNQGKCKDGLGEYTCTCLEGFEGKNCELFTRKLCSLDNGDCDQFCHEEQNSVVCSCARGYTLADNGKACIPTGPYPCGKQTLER

| Compound | IC50 (KLK5) [nM] | IC50 (matriptase) [nM] | IC50 (Factor Xa) [nM] | IC50 (activated hepsin) [nM] | IC50 [1] [nM] |
| --- | --- | --- | --- | --- | --- |
| CC(=O)N[C@H]1Cc2ccc(cc2)OC/C=C\C[C@@H](C(=O)N[C@@H](CCCNC(=N)N)C(=O)c2nc3ccccc3s2)NC(=O)[C@H](CC(C)C)NC1=O [VD4010, (7S,10S,13S,Z)-13-acetamido-N—((S)-1-(benzo[d]thiazol-2-yl)-5-guanidino-1-oxopentan-2-yl)-10-isobutyl-9,12-dioxo-2-oxa-8,11-diaza-1(1,4)-benzenacyclotetradecaphan-4-ene-7-carboxamide] | 1830 | 3.24 | 122 | 0.141 | 11.1 |
| CC(=O)N[C@H]1Cc2ccc(cc2)OCCCC[C@@H](C(=O)N[C@@H](CCCNC(=N)N)C(=O)c2nc3ccccc3s2)NC(=O)[C@H](CC(C)C)NC1=O [VD4072, (7S,10S,13S)-13-acetamido-N—((S)-1-(benzo[d]thiazol-2-yl)-5-guanidino-1-oxopentan-2-yl)-10-isobutyl-9,12-dioxo-2-oxa-8,11-diaza-1(1,4)-benzenacyclotetradecaphane-7-carboxamide] | 5230 | 7.76 | – | 0.175 | 7.99 |
| CC(=O)N[C@H]1Cc2cn(nn2)CCCC[C@H](C(=O)N[C@@H](CCCNC(=N)N)C(=O)c2nc3ccccc3s2)NC(=O)[C@H](CC(C)C)NC1=O [VD4090, (3S,6S,9R,Z)-3-acetamido-N—((S)-1-(benzo[d]thiazol-2-yl)-5-guanidino-1-oxopentan-2-yl)-6-isobutyl-4,7-dioxo-11H-5,8-diaza-1(4,1)-triazolacyclotridecaphane-9-carboxamide] | 9390 | 39.1 | – | 14.1 | – |
| CC(=O)N[C@H]1Cc2ccc(cc2)OCCCC[C@@H](C(=O)N[C@@H](CCCNC(=N)N)C(=O)c2nc3ccccc3s2)NC(=O)[C@H](Cc2ccccc2)NC1=O [VD4111, (7S,10S,13S)-13-acetamido-N—((S)-1-(benzo[d]thiazol-2-yl)-5-guanidino-1-oxopentan-2-yl)-10-benzyl-9,12-dioxo-2-oxa-8,11-diaza-1(1,4)-benzenacyclotetradecaphane-7-carboxamide] | 647 | 17 | – | 0.331 | 11.9 |
| CC(=O)N[C@H]1Cc2ccc(cc2)OCCCC[C@@H](C(=O)N[C@@H](CCCNC(=N)N)C(=O)c2nc3ccccc3s2)NC(=O)[C@H](Cc2c[nH]c3ccccc23)NC1=O [VD4158] | 3560 | 56.8 | – | – | 85.2 |

— patent publication US12590123B2, “Compounds and methods for treating cancer, viral infections, and allergic conditions” (Washington University, priority 2019, dated 2026)
